Laboratory results as given in article PMC3739326 (The Biochemical journal, 2011).
One block for each compound: values may come before it.

Key:
[1] = tested on: lymphoblasts from SCA11-affected individuals; details: cycloheximide as inhibitor of nonsense-mediated decay; cited from earlier work
[2] = molecular target: GST–TTBK2-(1–450) wild-type (Homo sapiens, UniProt Q6IQ55); assay: TTBK2 peptide kinase assay; type: biochemical
[3] = tested on: TTBK2[R181A or R181E] or TTBK2[A184G or A184E] mutants, GST–TTBK2-(1–450); assay: TTBK2 peptide kinase assay with phosphate-priming groove mutants; type: biochemical, human; details: read-out: Km of peptide phosphorylation by TTBK2 mutants, 0.1 mM [γ-32P]ATP, 20 min at 30 °C, non-linear regression

Chain of GST–TTBK2-(1–450) wild-type (Q6IQ55 1-450): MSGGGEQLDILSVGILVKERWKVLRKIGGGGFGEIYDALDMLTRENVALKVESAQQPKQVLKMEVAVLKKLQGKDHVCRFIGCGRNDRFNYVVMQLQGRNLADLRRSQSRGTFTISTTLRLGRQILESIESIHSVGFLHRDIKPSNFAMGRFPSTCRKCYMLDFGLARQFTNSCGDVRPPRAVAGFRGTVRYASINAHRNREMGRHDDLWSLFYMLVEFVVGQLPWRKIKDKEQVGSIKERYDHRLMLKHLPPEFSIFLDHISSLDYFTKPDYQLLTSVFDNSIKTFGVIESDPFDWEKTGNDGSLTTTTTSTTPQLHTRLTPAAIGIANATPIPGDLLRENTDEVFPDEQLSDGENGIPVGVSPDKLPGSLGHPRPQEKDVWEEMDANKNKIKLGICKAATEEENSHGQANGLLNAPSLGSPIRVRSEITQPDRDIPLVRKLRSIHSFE

Compound: C[C@@H]1C[C@@H]([C@H](O)CC2CC(=O)NC(=O)C2)C(=O)[C@@H](C)C1 [cycloheximide]
- TTBK2 mRNA level [1]: increased TTBK2 mRNA to levels that are similar in the normal transcript

Compound: RRKDLHDDEEDEAMS*ITA [CK1tide, reference compound]
- peptide phosphorylation by TTBK2 (in words) ([2]; TTBK2-(1–450)): phosphorylates CK1tide specifically at this serine residue

- Km [3]: 100 to 150 µM
- decrease of Km value by introducing a phosphotyrosine at the +2 position ([2]; relative to CK1tide): approximately 8 fold
- Vmax of peptide phosphorylation by TTBK2 ([2]; wild-type TTBK2, 0.1 mM [γ-32P]ATP, 20 min at 30 °C, non-linear regression): 76 units/mg
Compound: RRKDLHDDEEDEAMSIYpA [TTBKtide]
